Here are results for 16 molecules from PubChem BioAssay AID268 (DTP/NCI, 2004).

Values joined by “and” are separate entries in the source; they are usually repeats but may differ in a detail not shown here. Equal entries are not always repeated.

This assay deals with CD2F1 mice, P1798 lymphosarcoma sc, tumor weight T/C. Briefly: NCI In Vivo Anticancer Drug Screen. Data for tumor model P1798 Lymphosarcoma (subcutaneous) in CD2F1 (CDF1) mice. The note with it: endpoint: mean tumor weight, higher = larger tumour. The protocol:
The antitumor activity of compounds was measured in mice bearing transplantable tumors. Survival or tumor size were measured and the results are expressed as the measurement made in the treated group (T) divided by the measurement made in the vehicle treated control group (C). The tumor model used in this assay is P1798 Lymphosarcoma (subcutaneous) in CD2F1 (CDF1) mice

Where [1] appears, read: dose: 50.0 mg/kg/injection, schedule: Q01DX010 (ip), vehicle: saline.
Where [2] appears, read: dose: 100.0 mg/kg/injection, schedule: Q01DX010 (ip), vehicle: saline.
The mark [3] stands for this setting: dose: 200.0 mg/kg/injection, schedule: Q01DX010 (ip), vehicle: saline.
[4] abbreviates: dose: 25.0 mg/kg/injection, schedule: Q01DX010 (ip), vehicle: saline.

As a reminder, the T/C is the result in the treated group divided by that in the control group, in per cent. Regarding `CS(=O)(=O)OCCCCOS(C)(=O)=O`, the T/C runs as follows: (dose: 6.25 mg/kg/injection, schedule: Q01DX010 (ip), vehicle: saline) 103 % of control; under setting [1], 58 % of control and 80 % of control; under setting [2], 52 % of control.

For the molecule `O=C(CNC(=O)OCc1ccccc1)NCCCCCCNCCCCCCNC(=O)CNC(=O)OCc1ccccc1`, the T/C is, setting by setting: under setting [1], 120 % of control; under setting [2], 97 % of control.

For `Cc1cc2nc3c(=O)[nH]c(=O)nc-3n(CC(O)C(O)C(O)C(O)CO)c2cc1C` (stereo unspecified), the T/C was 86 % of control under setting [1], 88 % of control under setting [2] and 58 % of control under setting [3].

On to `Nc1nc(SCc2ccccc2)c2[nH]cnc2n1`, for which the T/C (dose: 16.0 mg/kg/injection, schedule: Q01DX010 (ip), vehicle: saline) is 86 % of control and the T/C (dose: 64.0 mg/kg/injection, schedule: Q01DX010 (ip), vehicle: saline) is 90 % of control.

Consider `C[C@]12C=CC(=O)C=C1CC[C@H]1[C@@H]3C[C@@H](O)[C@](O)(C(=O)CO)[C@@]3(C)C[C@H](O)[C@@]12F`, for which the T/C was 16 % of control (dose: 12.5 mg/kg/injection, schedule: Q01DX005 (sc), vehicle: steriod suspending solution); 26 % of control (dose: 12.5 mg/kg/injection, schedule: Q03DX004 (sc), vehicle: steriod suspending solution); 2 % of control (dose: 25.0 mg/kg/injection, schedule: Q01DX005 (sc), vehicle: steriod suspending solution); 115 % of control (dose: 25.0 mg/kg/injection, schedule: Q02DX010 (sc), vehicle: steriod suspending solution); 6 % of control (dose: 25.0 mg/kg/injection, schedule: Q03DX004 (sc), vehicle: steriod suspending solution); 2 % of control (dose: 50.0 mg/kg/injection, schedule: Q01DX005 (sc), vehicle: steriod suspending solution). Also, the T/C (dose: 50.0 mg/kg/injection, schedule: Q02DX010 (sc), vehicle: steriod suspending solution) was 122 % of control and the T/C (dose: 50.0 mg/kg/injection, schedule: Q03DX004 (sc), vehicle: steriod suspending solution) is 5 % of control.

Consider `NC(=O)n1cccn1`, for which the T/C is 84 % of control under setting [4], 75 % of control under setting [1], 71 % of control under setting [2] and 45 % of control under setting [3].

For the molecule `NCC(=O)NCCCCCCNCCCCCCNC(=O)CN`, the T/C was 82 % of control under setting [1]; 113 % of control under setting [2]; 89 % of control under setting [3]; 73 % of control (dose: 400.0 mg/kg/injection, schedule: Q01DX010 (ip), vehicle: saline).

Consider `COCCOC`, for which the T/C was 100 % of control (dose: 300.0 mg/kg/injection, schedule: Q01DX010 (ip), vehicle: saline); 62 % of control (dose: 450.0 mg/kg/injection, schedule: Q01DX010 (ip), vehicle: saline); 60 % of control (dose: 675.0 mg/kg/injection, schedule: Q01DX010 (ip), vehicle: saline).

Take `CCC1=C(c2cc(Cl)c3ccccc3c2OCC(=O)O)OC(CC)(C(=O)c2cc(Cl)c3ccccc3c2OCC(=O)O)CC1` (stereo unspecified): the T/C (dose: 240.0 mg/kg/injection, schedule: Q01DX010 (ip), vehicle: steriod suspending solution) is 74 % of control and the T/C (dose: 480.0 mg/kg/injection, schedule: Q01DX010 (ip), vehicle: steriod suspending solution) is 80 % of control.

For the molecule `N=C(N)c1ccc(Nc2ccc(C(=N)N)cc2)cc1`, the T/C was 85 % of control (dose: 1.5 mg/kg/injection, schedule: Q01DX010 (ip), vehicle: saline); 82 % of control (dose: 3.0 mg/kg/injection, schedule: Q01DX010 (ip), vehicle: saline); 119 % of control (dose: 6.0 mg/kg/injection, schedule: Q01DX010 (ip), vehicle: saline); 77 % of control (dose: 12.0 mg/kg/injection, schedule: Q01DX010 (ip), vehicle: saline).

With `NC(N)=NCCCC(N)C(=O)NCCCCCCNCCCCCCNC(=O)C(N)CCCN=C(N)N` (stereo unspecified), the T/C reads like this: (dose: 5.0 mg/kg/injection, schedule: Q01DX010 (ip), vehicle: saline) 102 % of control; (dose: 10.0 mg/kg/injection, schedule: Q01DX010 (ip), vehicle: saline) 105 % of control; (dose: 20.0 mg/kg/injection, schedule: Q01DX010 (ip), vehicle: saline) 84 % of control; (dose: 40.0 mg/kg/injection, schedule: Q01DX010 (ip), vehicle: saline) 116 % of control.

On to `CN(C)c1nc(N(C)C)nc(N(C)C)n1`, for which the T/C by setting is: (dose: 18.8 mg/kg/injection, schedule: Q01DX010 (ip), vehicle: saline) 104 % of control and 87 % of control; (dose: 75.0 mg/kg/injection, schedule: Q01DX010 (ip), vehicle: saline) 68 % of control and 82 % of control; (dose: 150.0 mg/kg/injection, schedule: Q01DX010 (ip), vehicle: saline) 26 % of control.

For the molecule `C=C1C[C@H]2[C@@H]3C=C(C)C4=CC(=O)CC[C@]4(C)[C@H]3CC[C@]2(C)[C@@]1(OC(C)=O)C(C)=O`, the T/C was 109 % of control and 116 % of control (dose: 12.5 mg/kg/injection, schedule: Q01DX010 (sc), vehicle: steriod suspending solution); 84 % of control (dose: 25.0 mg/kg/injection, schedule: Q01DX010 (sc), vehicle: steriod suspending solution); 120 % of control (dose: 50.0 mg/kg/injection, schedule: Q01DX010 (sc), vehicle: steriod suspending solution); 87 % of control (dose: 125.0 mg/kg/injection, schedule: Q01DX001 (sc), vehicle: steriod suspending solution); 124 % of control (dose: 125.0 mg/kg/injection, schedule: Q01DX010 (sc), vehicle: steriod suspending solution); 117 % of control (dose: 125.0 mg/kg/injection, schedule: Q02DX005 (sc), vehicle: steriod suspending solution). Moreover, the T/C (dose: 250.0 mg/kg/injection, schedule: Q01DX001 (sc), vehicle: steriod suspending solution) was 151 % of control and 160 % of control; the T/C (dose: 250.0 mg/kg/injection, schedule: Q01DX010 (sc), vehicle: steriod suspending solution) is 76 % of control; the T/C (dose: 250.0 mg/kg/injection, schedule: Q02DX005 (sc), vehicle: steriod suspending solution) was 110 % of control; the T/C (dose: 500.0 mg/kg/injection, schedule: Q01DX001 (sc), vehicle: steriod suspending solution) is 74 % of control and 80 % of control; the T/C (dose: 500.0 mg/kg/injection, schedule: Q01DX010 (sc), vehicle: steriod suspending solution) is 85 % of control; the T/C (dose: 500.0 mg/kg/injection, schedule: Q02DX005 (sc), vehicle: steriod suspending solution) is 96 % of control. Besides, the T/C (dose: 1000.0 mg/kg/injection, schedule: Q01DX001 (sc), vehicle: steriod suspending solution) is 100 % of control and 112 % of control.

Turning to `CC(=O)OCC(=O)[C@@]1(O)CC[C@H]2[C@@H]3CCC4=CC(=O)C=C[C@]4(C)[C@H]3[C@@H](O)C[C@@]21C`, the T/C runs as follows: (dose: 2.5 mg/kg/injection, schedule: Q01DX Z (sc), vehicle: steriod suspending solution) 92 % of control; (dose: 5.0 mg/kg/injection, schedule: Q01DX010 (sc), vehicle: steriod suspending solution) 20 % of control; (dose: 5.0 mg/kg/injection, schedule: Q01DX Z (sc), vehicle: steriod suspending solution) 107 % of control; (dose: 10.0 mg/kg/injection, schedule: Q01DX010 (sc), vehicle: steriod suspending solution) 4 % of control; (dose: 10.0 mg/kg/injection, schedule: Q01DX Z (sc), vehicle: steriod suspending solution) 100 % of control and 88 % of control; (dose: 20.0 mg/kg/injection, schedule: Q01DX010 (sc), vehicle: steriod suspending solution) 5 % of control. In addition, the T/C reads like this: (dose: 20.0 mg/kg/injection, schedule: Q01DX Z (sc), vehicle: steriod suspending solution) 119 % of control; (dose: 40.0 mg/kg/injection, schedule: Q01DX010 (sc), vehicle: steriod suspending solution) 5 % of control; (dose: 40.0 mg/kg/injection, schedule: Q01DX Z (sc), vehicle: steriod suspending solution) 77 % of control; (dose: 80.0 mg/kg/injection, schedule: Q01DX Z (sc), vehicle: steriod suspending solution) 57 % of control.

`c1ccc(CSc2ncnc3nc[nH]c23)cc1`: the T/C reads like this: (dose: 12.5 mg/kg/injection, schedule: Q01DX010 (ip), vehicle: saline) 70 % of control and 82 % of control; under setting [4], 83 % of control and 85 % of control; under setting [2], 13 % of control.

For `CC(=O)NCCSC(=O)C(=O)SCCNC(C)=O`, the T/C was 111 % of control under setting [4], 104 % of control under setting [1] and 110 % of control under setting [2].
